Laboratory results taken from patent US20220168322A1, “NOVEL STAT3 INHIBITORS IDENTIFIED BY STRUCTURE-BASED VIRTUAL SCREENING INCORPORATING SH2 DOMAIN FLEXIBILITY” (Board of Regents, The University of Texas System, priority 2018, published 2022).

system: G-CSF-stimulated pSTAT3; test: Inhibition of G-CSF-stimulated pSTAT3 in Kasumi-1 cells (Luminex, pSTAT3/GAPDH); type: cell-based; conditions: Kasumi1 cells, single concentration of 10 μM, G-CSF 100 ng/ml; pSTAT3/GAPDH relative to DMSO treated cells
Description: […] Total protein was assayed for pSTAT3 and GAPDH levels by Luminex. GAPDH-normalized pSTAT3 values were divided by the same for untreated cells and expressed as percentage. These values were plotted as a function of Log [M] compound, and IC50 calculated using GraphPad. Data from representative experiments from at least two repeats is shown.
Luminex bead-based assay. Luminex bead-based assays were used to determine levels of pSTAT3, pSTAT1, pSTAT5, and GAPDH, as described (Bharadwaj et al., 2015). […]

Compared with CCCC(NC(=O)c1ccccc1)C(=O)OCC(=O)Nc1nc2ccc(OC)cc2s1 (stereo not drawn) [AG-690/15437974], CCOC(=O)COc1ccc(-c2nc3ccccc3s2)cc1OC [SPEC-33] is higher in “% of Control Stimulated pSTAT3” value: 82% for the first, 89% for the second.

Going from CC(=O)c1ccc(NC(=O)c2ccc(CSc3nnc(NC(=O)CCc4ccccc4)s3)cc2)cc1 [SPEC-3] to CCC(Sc1nnc(NC(=O)CCc2ccccc2)s1)C(=O)Nc1ccc(C(C)=O)cc1 (stereo not drawn) [SPEC-45], the “% of Control Stimulated pSTAT3” value rises from 77% to 113%.

Going from Cc1c(C)c2ccc(OCC(=O)Nc3cccc([N+](=O)[O-])c3)c(C)c2oc1=O [SPEC-9] to Cc1c(Cl)c(=O)oc2c(C)c(OCc3ccc([N+](=O)[O-])cc3)ccc12 [SPEC-10], the “% of Control Stimulated pSTAT3” value falls from 93% to 87%.

Compared with O=C(COc1ccc(/C=C2/SC(=O)N(CC(=O)N3CCN(c4ccccc4)CC3)C2=O)cc1Br)Nc1ccccc1 [SPEC-11], O=C(CN1C(=O)S/C(=C\c2ccc(-c3cc(C(=O)O)ccc3Cl)o2)C1=O)Nc1ccccc1 [SPEC-23] is higher in “% of Control Stimulated pSTAT3” value: 86% for the first, 114% for the second.

Going from NC(=O)COc1ccc(/C=N/NC(=O)CCCOc2ccc(Cl)cc2Cl)cc1 [SPEC-12] to COc1cc(C=Nc2cccc(Cl)c2)ccc1OCC(N)=O [SPEC-41], the “% of Control Stimulated pSTAT3” value falls from 75% to 74%.

Compared with O=C(O)COc1ccc(/C=N/NC(=O)C2CCCN2S(=O)(=O)c2ccc(Cl)cc2)cc1 (stereo not drawn) [SPEC-13], O=C(CN1C(=O)S/C(=C/c2ccc(Cl)cc2)C1=O)Nc1ccc(S(=O)(=O)Nc2nccs2)cc1 [SPEC-105] is lower in “% of Control Stimulated pSTAT3” value: 99% for the first, 86% for the second.

First: N#Cc1ccccc1Sc1ccccc1C(=O)Nc1ccc(OCC(=O)N2CCOCC2)cc1 [SPEC-14]
Second: COC(=O)CSc1nc2ccc(NC(=O)c3ccccc3C(=O)N3CCN(c4ccccc4)CC3)cc2s1 [SPEC-27]
The “% of Control Stimulated pSTAT3” value of the first is higher: 91% for the first, 61% for the second.

Going from CC(=O)NCCc1ccc(S(=O)(=O)Nc2ccc(C(=O)NCc3ccccc3)cc2)cc1 [SPEC-15] to CC(=O)c1ccc(NC(=O)C(C)Oc2ccccc2)cc1 (stereo not drawn) [SPEC-94], the “% of Control Stimulated pSTAT3” value falls from 98% to 97%.

Compared with CC1=CC(=O)OC2C=C(OCCCCCCOC3=CC4OC(=O)C=C(C)C4C=C3)C=CC12 (stereo not drawn) [SPEC-17], COc1ccc(CCNC2CC(=O)N(c3ccc(N4C(=O)CC(NCCc5ccc(OC)cc5)C4=O)cc3)C2=O)cc1 (stereo not drawn) [SPEC-31] is lower in “% of Control Stimulated pSTAT3” value: 106% for the first, 99% for the second.

Going from Cc1ccccc1NC(=O)CN1C(=O)S/C(=C/c2ccc(-c3ccc(Cl)c(C(=O)O)c3)o2)C1=O [SPEC-24] to O=C(O)c1ccc(-c2ccc(/C=C3/NC(=O)N(c4ccc(Cl)cc4)C3=O)o2)cc1 [SPEC-80], the “% of Control Stimulated pSTAT3” value falls from 105% to 89%.

Going from O=C(CSc1nnc(-c2ccccc2)c(-c2ccccc2)n1)Nc1ccc(S(=O)(=O)Nc2nccs2)cc1 [SPEC-30] to O=C(CCN1C(=O)S/C(=C\c2ccc(Cl)cc2)C1=O)Nc1ccc(S(=O)(=O)Nc2nccs2)cc1 [SPEC-97], the “% of Control Stimulated pSTAT3” value falls from 68% to 55%.

Compared with C=CCN1C(=O)NC(=O)/C(=C/c2ccc(OCC(=O)Nc3ccc(C)cc3)cc2)C1=O [SPEC-35], CCOc1ccc(NC(=O)CN2C(=O)S/C(=C/c3ccc(OCC(N)=O)c(OCC)c3)C2=O)cc1 [SPEC-40] is higher in “% of Control Stimulated pSTAT3” value: 69% for the first, 75% for the second.

First: O=C(O)c1ccc(-c2ccc(CNCCc3c[nH]c4ccccc34)o2)cc1 [SPEC-42]
Second: COc1ccccc1CCNCc1ccc(-c2cccc(C(=O)O)c2)o1 [SPEC-44]
The “% of Control Stimulated pSTAT3” value of the first is lower: 118% for the first, 120% for the second.

Compared with O=C(O)c1cccc(-c2ccc(CNCc3ccc4c(c3)OCO4)o2)c1 [SPEC-43], COc1cc(C=C2C(=O)OC(C)(c3ccccc3)OC2=O)ccc1OCc1cccc(C(=O)O)c1 (stereo not drawn) [SPEC-60] is higher in “% of Control Stimulated pSTAT3” value: 96% for the first, 98% for the second.

First: CC1=NN(c2ccc(C)cc2)C(=O)/C1=C\c1ccc(-c2ccc(C(=O)O)cc2)o1 [SPEC-46]
Second: COc1cccc(N=C2SC(C(=O)Nc3ccc(C(=O)O)cc3)CC(=O)N2C)c1 (stereo not drawn) [SPEC-95]
The “% of Control Stimulated pSTAT3” value of the first is lower: 71% for the first, 104% for the second.

First: O=C(NNC(=O)[C@@H]1CCCC[C@@H]1C(=O)O)c1ccc(NC(=O)C2CC2)cc1 [SPEC-47]
Second: CC(=O)c1ccc(NC(=O)NC2CCCCC2)cc1 [SPEC-63]
The “% of Control Stimulated pSTAT3” value of the first is lower: 104% for the first, 118% for the second.

First: O=C(CCCCC(=O)NNC(=O)COc1ccc2ccccc2c1)NNC(=O)COc1ccc2ccccc2c1 [SPEC-49]
Second: COc1ccc(C(=O)COC(=O)c2ccc(NC(=O)CCCC(=O)O)cc2)cc1 [SPEC-77]
The “% of Control Stimulated pSTAT3” value of the first is lower: 105% for the first, 121% for the second.

First: CCN(CC)S(=O)(=O)c1ccc(NC(=O)CCCC(=O)Nc2ccc(S(=O)(=O)N(CC)CC)cc2)cc1 [SPEC-51]
Second: O=C(CCCCC(=O)Nc1ccc(S(=O)(=O)N2CCCC2)cc1)Nc1ccc(S(=O)(=O)N2CCCC2)cc1 [SPEC-55]
The “% of Control Stimulated pSTAT3” value of the first is lower: 87% for the first, 114% for the second.

First: CC1CCN(S(=O)(=O)c2ccc(NC(=O)CCCC(=O)Nc3ccc(S(=O)(=O)N4CCC(C)CC4)cc3)cc2)CC1 [SPEC-52]
Second: O=C(CCCCC(=O)Nc1ccc(S(=O)(=O)Nc2ccc(F)cc2)cc1)Nc1ccc(S(=O)(=O)Nc2ccc(F)cc2)cc1 [SPEC-53]
The “% of Control Stimulated pSTAT3” value of the first is higher: 120% for the first, 71% for the second.

Going from CCN1C(=O)/C(=C/c2ccc(OCC(=O)O)c(OC)c2)SC1=S [SPEC-59] to CCN1C(=O)S/C(=C/c2ccc(OCc3cccc(C(=O)O)c3)c(Br)c2)C1=O [SPEC-83], the “% of Control Stimulated pSTAT3” value falls from 78% to 61%.

First: CC(=O)N1CCc2nc(SCC(=O)Nc3cccc(C#N)c3)c(C#N)c(C(F)(F)F)c2C1 [SPEC-62]
Second: CC(=O)c1ccc(NC(=O)CSc2nnc(COc3ccc([N+](=O)[O-])cc3)n2C)cc1 [SPEC-92]
The “% of Control Stimulated pSTAT3” value of the first is higher: 108% for the first, 51% for the second.

Going from COc1ccc(/C=N/NC(=O)COc2ccc(Cl)cc2)cc1COc1cccc2cccnc12 [SPEC-69] to COc1cccc(-c2csc(NC(=O)C3CC(=O)N(c4cccc(Cl)c4)C3)n2)c1 (stereo not drawn) [SPEC-75], the “% of Control Stimulated pSTAT3” value falls from 112% to 55%.

Compared with O=C(COC(=O)C1C2CC3C(OC(=O)C31)C2Br)c1ccc(Cl)cc1Cl (stereo not drawn) [SPEC-74], CCN1C(=O)N/C(=C/c2ccc(OCc3cccc(C(=O)O)c3)c(Cl)c2)C1=O [SPEC-79] is lower in “% of Control Stimulated pSTAT3” value: 82% for the first, 79% for the second.

Compared with CC(=O)c1ccc(NC(=O)CSc2nnc(CNc3ccc(C)cc3C)n2CC2CCCO2)cc1 (stereo not drawn) [SPEC-89], CC(=O)c1ccc(NC(=O)CSc2nn3c(SCC(=O)Nc4ccc(C(C)=O)cc4)nnc3s2)cc1 [SPEC-104] is higher in “% of Control Stimulated pSTAT3” value: 68% for the first, 91% for the second.

Going from CC(=O)c1ccc(NC(=O)CC2S/C(=N\N=C3CCCCCC3)NC2=O)cc1 (stereo not drawn) [SPEC-99] to COC(=O)CCC(=O)Nc1ccc(Cc2ccc(NC(=O)CCC(=O)OC)cc2)cc1 [SPEC-108], the “% of Control Stimulated pSTAT3” value rises from 67% to 98%.

CN1CCS/C1=C/C=C1\SC(=S)N(CC(=O)O)C1=O [SPEC-107] was tested, and the “% of Control Stimulated pSTAT3” value was 107%.
